According to US10442808B2, “Pyrazolo pyrimidine derivatives and their use as MALT1 inhbitors” (NOVARTIS AG, priority 2014, dated 2019):

Tested on: IL2 promoter
Assay: Human IL2 promoter reporter gene assay (RGA) in Jurkat cells
Type: cell-based
Details: […], heading: IL2 reporter gene assay IC50, anti-CD28 mAb + PMA stimulation 5.5 h
Procedure: Human IL2 Promoter Reporter Gene Assay (RGA) in Jurkat Cells
The transfected Jurkat clone K22 290_H23 was propagated in RPMI 1640 supplemented with 10% heat inactivated fetal calf serum, 50 μM 2-mercaptoethanol and 1 mg/ml Geneticin. The cell concentration should not exceed 1×10e6/ml during culturing. The cells should not exceed passage 30. Prior to the assay the cells were washed and prepared to the concentration of 2×10e6 cells/ml.
Compound dilutions were made as 2×-concentrated solutions then diluted ½ by addition to cells. Two hundred and fifty μl of compound dilution and 250 μl of cells were mixed together in wells of a 96-deep well plate. Cells/compounds premix were incubated 30 min at 37° C. and 5% CO2 directly in the deep well plate.
After pre-incubation of cells with compounds, cells were stimulated with anti-CD28 mAb (clone 15E8) at 3 μg/ml+PMA at 1 μg/ml. Both co-stimulants were diluted in culture medium at a 10×-concentrated solution. 10 μl of co-stimulants were pipetted into the white 96-well plates and 100 μl of cell/compound mix was immediately added in duplicates. The cells were stimulated for 5.5 h at 37° C. and 5% CO2.
After cell stimulation, 50 μl of BriteLitePlus reagent (Perkin Elmer) was added to each well and the bioluminescence was measured with a Wallac EnVision reader (Perkin Elmer).

| Structure (SMILES) | IC50 [nM] |
| --- | --- |
| C[C@@H](OCc1ccccc1)c1c(NC(=O)Nc2cnc(-n3nccn3)c(C(F)(F)F)c2)cnc2cc(Cl)nn12 [Example 65, (R)-1-(6-(2H-1,2,3-triazol-2-yl)-5-(trifluoromethyl)pyridin-3-yl)-3-(7-(1-(benzyloxy)ethyl)-2-chloropyrazolo[1,5-a]pyrimidin-6-yl)urea] | 72 |
| COCC1(c2c(NC(=O)Nc3cnc(-n4nccn4)c(Cl)c3)cnc3cc(Cl)nn23)CCCO1 (centres unmarked) [Example 91, 1-(5-chloro-6-(2H-1,2,3-triazol-2-yl)pyridin-3-yl)-3-(2-chloro-7-(2-(methoxymethyl)tetrahydrofuran-2-yl)pyrazolo[1,5-a]pyrimidin-6-yl)urea] | 50 |
| CCOc1ncc(NC(=O)Nc2cnc3cc(Cl)nn3c2C(C)C)cc1Cl [Example 25, 1-(5-chloro-6-ethoxypyridin-3-yl)-3-(2-chloro-7-isopropylpyrazolo[1,5-a]pyrimidin-6-yl)urea] | 248 |
| CO[C@@H](C)c1c(NC(=O)Nc2cnc(-n3nccn3)c(C(F)F)c2)cnc2cc(Cl)nn12 [Example 89, (S)-1-(2-chloro-7-(1-methoxyethyl)pyrazolo [1,5-a]pyrimidin-6-yl)-3-(5-(difluoromethyl)-6-(2H-1,2,3-triazol-2-yl)pyridin-3-yl)urea] | 25 |
| C[C@H](OCCN(C)C)c1c(NC(=O)Nc2cnc(-n3nccn3)c(Cl)c2)cnc2cc(Cl)nn12 [Example 82, (S)-1-(5-chloro-6-(2H-1,2,3-triazol-2-yl)pyridin-3-yl)-3-(2-chloro-7-(1-(2-(dimethylamino)ethoxy)ethyl)pyrazolo[1,5-a]pyrimidin-6-yl)urea] | 16 |
| CO[C@H](c1c(NC(=O)Nc2cnc(-n3nccn3)c(Cl)c2)cnc2cc(Cl)nn12)[C@@H](C)OC [Example 98, 1-(5-chloro-6-(2H-1,2,3-triazol-2-yl)pyridin-3-yl)-3-(2-chloro-7-((1R,2R)-1,2-dimethoxypropyl)pyrazolo[1,5-a]pyrimidin-6-yl)urea] | 115 |
| O=C(Nc1cnc(-n2nccn2)c(C(F)(F)F)c1)Nc1cnc2cc(Cl)nn2c1-c1ccco1 [Example 63, 1-(6-(2H-1,2,3-triazol-2-yl)-5-(trifluoromethyl)pyridin-3-yl)-3-(2-chloro-7-(furan-2-yl)pyrazolo[1,5-a]pyrimidin-6-yl)urea] | 91 |
| CO[C@@H](C)c1c(NC(=O)Nc2cnc(-n3nccn3)c(C(F)(F)F)c2)cnc2cc(F)nn12 [Example 94, (S)-1-(6-(2H-1,2,3-triazol-2-yl)-5-(trifluoromethyl)pyridin-3-yl)-3-(2-fluoro-7-(1-methoxyethyl)pyrazolo[1,5-a]pyrimidin-6-yl)urea] | 484 |
| CO[C@@H](C)c1c(NC(=O)Nc2cnc(OC(F)F)c(Cl)c2)cnc2cc(Cl)nn12 [Example 93, (S)-1-(5-chloro-6-(difluoromethoxy)pyridin-3-yl)-3-(2-chloro-7-(1-methoxyethyl)pyrazolo[1,5-a]pyrimidin-6-yl)urea] | 59 |
| CC(C)OCc1c(NC(=O)Nc2cnc(-n3nccn3)c(Cl)c2)cnc2cc(Cl)nn12 [Example 61, 1-(5-chloro-6-(2H-1,2,3-triazol-2-yl)pyridin-3-yl)-3-(2-chloro-7-(isopropoxymethyl)pyrazolo[1,5-a]pyrimidin-6-yl)urea] | 14 |
| O=C(Nc1cnc(-n2nccn2)c(Cl)c1)Nc1cnc2cc(Cl)nn2c1C1CC12CCOC2 (centres unmarked) [Example 68, 1-(5-chloro-6-(2H-1,2,3-triazol-2-yl)pyridin-3-yl)-3-(2-chloro-7-(5-oxaspiro[2.4]heptan-1-yl)pyrazolo[1,5-a]pyrimidin-6-yl)urea] | 76 |
| CC(C)c1c(NC(=O)Nc2cnc(N3CCCS3(=O)=O)c(C(F)(F)F)c2)cnc2cc(Cl)nn12 [Example 27, 1-(2-chloro-7-isopropylpyrazolo[1,5-a]pyrimidin-6-yl)-3-(6-(1,1-dioxidoisothiazolidin-2-yl)-5-(trifluoromethyl)pyridin-3-yl)urea] | 507 |
| CO[C@@H](c1c(NC(=O)Nc2cnc(-n3nccn3)c(Cl)c2)cnc2cc(Cl)nn12)C(C)C [Example 5, (R)-1-(5-chloro-6-(2H-1,2,3-triazol-2-yl)pyridin-3-yl)-3-(2-chloro-7-(1-methoxy-2-methylpropyl)pyrazolo[1,5-a]pyrimidin-6-yl)urea] | 52 |

Now from value to compound:

| IC50 [nM] | Structure (SMILES) |
| --- | --- |
| 214 | Cc1cnn(-c2ncc(NC(=O)Nc3cnc4cc(Cl)nn4c3C(C)C)cc2Cl)n1 [Example 22, 1-(5-chloro-6-(4-methyl-2H-1,2,3-triazol-2-yl)pyridin-3-yl)-3-(2-chloro-7-isopropylpyrazolo[1,5-a]pyrimidin-6-yl)urea] |
| 149 | CC1(c2c(NC(=O)Nc3ccnc(C(F)(F)F)c3)cnc3cc(Cl)nn23)CC1 [Example 17, 1-(2-chloro-7-(1-methylcyclopropyl)pyrazolo[1,5-a]pyrimidin-6-yl)-3-(2-(trifluoromethyl)pyridin-4-yl)urea] |
| 112 | CO[C@@H](C)c1c(NC(=O)Nc2ccnc(C#N)c2)cnc2cc(Cl)nn12 [Example 105, (S)-1-(2-chloro-7-(1-methoxyelhyl)pyrazolo[1,5-a]pyrimidin-6-yl)-3-(2-cyanopyridin-4-yl)urea] |
| 82 | COCCO[C@@H](C)c1c(NC(=O)Nc2ccnc(C(F)(F)F)c2)cnc2cc(Cl)nn12 [Example 41, (S)-1-(2-chloro-7-(1-(2-methoxyethoxy)ethyl)pyrazolo[1,5-a]pyrimidin-6-yl)-3-(2-(trifluoromethyl)pyridin-4-yl)urea] |
| 67 | COC(=O)c1cc(Cl)cc(NC(=O)Nc2cnc3cc(Cl)nn3c2[C@H](C)OC)c1 [Example 13, (S)-methyl 3-chloro-5-(3-(2-chloro-7-(1-methoxyethyl)pyrazolo [1,5-a]pyrimidin-6-yl)ureido)benzoate] |
| 54 | CO[C@@H](C)c1c(NC(=O)Nc2cc(Cl)cnc2OCCN(C)C)cnc2cc(Cl)nn12 [Example 99, (S)-1-(5-chloro-2-(2-(dimethylamino)ethoxy)pyridin-3-yl)-3-(2-chloro-7-(1-methoxyethyl)pyrazolo[1,5-a]pyrimidin-6-yl)urea] |
| 52 | CO[C@@H](C)c1c(NC(=O)Nc2cnc(-n3nccn3)c(Cl)c2)cnc2cc(C#N)nn12 [Example 96, (S)-1-(5-chloro-6-(2H-1,2,3-triazol-2-yl)pyridin-3-yl)-3-(2-cyano-7-(1-methoxyethyl)pyrazolo[1,5-a]pyrimidin-6-yl)urea] |
| 39 | CO[C@@H](C)c1c(NC(=O)Nc2ccnc(Cl)c2)cnc2cc(Cl)nn12 [Example 12, (S)-1-(2-chloro-7-(1-methoxyethyl)pyrazolo [1,5-a]pyrimidin-6-yl)-3-(2-chloropyridin-4-yl)urea] |
| 24 | CO[C@@H](C)c1c(NC(=O)Nc2ccnc(C(F)F)c2)cnc2cc(Cl)nn12 [Example 92, (S)-1-(2-chloro-7-(1-methoxyethyl)pyrazolo [1,5-a]pyrimidin-6-yl)-3-(2-(difluoromethyl)pyridin-4-yl)urea] |

Same assay, conditions: anti-CD28 mAb + PMA stimulation 5.5 h

| Structure (SMILES) | IC50 [nM] |
| --- | --- |
| CO[C@@H](C)c1c(NC(=O)Nc2ccnc(C(F)(F)F)c2)cnc2cc(Cl)nn12 [Example 2, (S)-1-(2-chloro-7-(1-methoxyethyl)pyrazolo[1,5-a]pyrimidin-6-yl)-3-(2-(trifluoromethyl)pyridin-4-yl)urea] | 51 |
